Experimental data published in US8143288B2, “Inhibitors of HCV replication” (priority 2005, dated 2012).
Where two headings read alike, the source gives them in different places.

What was measured:
[1] = test system: HCV 1b-377-neo replicon cells; experiment: HCV replicon FRET assay; format: cell-based; conditions: Hepatitis C virus
[2] = Alamar blue cytotoxicity (CC50) in replicon cells; format: cell-based; conditions: human, wild-type HCV 1b-377-neo replicon cells
Description: (§1) At subsequent various times (typically 72 hours), 10% final volume Alamar blue (Cat#00-100, Trek Diagnostics, Cleveland, Ohio) was added to each well. The plates were returned to the incubator for 5 hours and then read in the Cytoflour (PE Biosystems) to determine Alamar blue conversion in each well as a measure of cellular toxicity. After reading the Alamar blue fluorescence following the manufacturers directions, plates were rinsed 2× with PBS and then used for FRET assay by the addition of 30 μl of the FRET peptide assay reagent (described above) per well. The plate was then placed into the Cytoflour 4000 instrument which had been set to 340 excite/490 emission, automatic mode for 20 cycles and the plate read in a kinetic mode. Typically, the signal to noise using an endpoint analysis after the reads was at least three-fold.
Compound analysis depended upon the quantification of the relative HCV replicon inhibition and the relative cytotoxicity values. To calculate cytotoxicity values, the average alamar blue fluorescence signals from the control wells in row 11 were set as 100% non-toxic. The individual signals in each of the compound test wells were then divided by the average control signal and multiplied by 100% to determine […]. […]

[3] = test system: Y2065H HCV 1b-377-neo replicon cells; experiment: FRET assay on Y2065H (Y > H) replicon cells; format: cell-based; conditions: for EC50: Hepatitis C virus
[4] = Alamar blue cytotoxicity (CC50) in Y > H replicon cells; format: cell-based; conditions: human
Description: as §1
The assay was further adapted to accommodate titrations of compounds to determine EC50 and CC50 values.
(§2) To determine if the Y2065H change was necessary and sufficient to confer resistance to Compound A, the single mutation was generated in the HCV 1b-377-neo replicon. […] To further verify this, colonies formed in the absence of Compound A were isolated and expanded for both the wild-type and Y2065H clones. Sensitivity of these cells to Compound A was then examined using the FRET assay.

[5] = test system: wild-type HCV 1b-377-neo replicon; experiment: Colony formation, wild-type replicon RNA in Huh-7 cells; format: cell-based; conditions: 2 μM Compound A
Source text: as §2

[6] = test system: Y2065H HCV 1b-377-neo replicon; experiment: Colony formation, Y2065H replicon RNA in Huh-7 cells; format: cell-based; conditions: Y > H RNA transfected, 2 μM Compound A, 3 weeks G418 selection
Source text: as §2

[7] = test system: Compound A-r replicon cells; experiment: FRET assay on selected Compound A-r replicon cells; format: cell-based, HCV; conditions: judged by the FRET assay; cells selected with Compound A 5-6 weeks
Description: HCV 1b-377-neo replicon cells were plated in 100-mm plates with ˜25% confluence after 24 hour seeding. Compound A (prepared by the procedure described in WO04/014852, published Feb. 19, 2004) was added at the final concentrations of 5, 10 and 20 μM in the presence of G418. Wild type replicon cells 15 in the absence of the compound were used as a control. After 5-6 weeks, both wt replicon cells and selected cells were tested for their sensitivity to Compound A. In addition, cell lines derived from individual colonies from different concentrations of selective Compound A were also isolated, expanded and tested. In the initial test, approximately 60-fold resistance, judged by the FRET assay, was observed between wt replicon cells and selected replicon cells (designated as Compound A-r replicon cells).

HCV replicon = experiment: Combination studies in HCV replicon system (FRET, method of Chou); format: cell-based; conditions: for combination response: in combination with Example 3, replicon cells, 72 hours
Description: Since clinical drug resistance often develops in viral infections following single-agent therapies, there is a need to assess the additive, antagonistic, or synergistic properties of combination therapies. […] Drugs were tested at eleven concentrations each, diluted in DMSO by 3-fold dilutions. The highest concentration used for the four HCV inhibitors was 0.1 μM for Example 3 and 20 μM for the three other HCV antivirals. […] The drugs were tested as monotherapies and in combination with Example 3 at various concentration ratios. Cells were exposed to compounds for 72 hours and the amount of HCV inhibition was then determined using the FRET assay. The potential cytotoxicities of these combined agents were also analyzed in parallel by Alamar blue staining. The degree of antagonism or synergy was determined over a range of drug concentrations, and the combination response curves were fit to assess the antiviral effects of the drug treatment combinations. The concentration ratios were analyzed using the method of Chou. Table 5 reports the combination indices (CI) and the asymptotic confidence intervals at the different concentration ratios. All combination indices were tested for departure from additivity using isobologram methods.

HCV = HCV therapy, Poynard et al. 1998; cited from earlier work
[8] = Wild-type replicon cells, FRET assay, read-out: EC50
[9] = monotherapy, 72 hours, FRET assay, read-out: EC50 in monotherapy
[10] = combined with Example 3, molar ratio 1:1
[11] = combined with Example 3, molar ratio 1:2.5
[12] = combined with Example 3, molar ratio 2.5:1

**Q.** For C[C@H](NC(=O)OCc1ccccc1)C(=O)Nc1ccc(C2S/C(=N\c3cccc(F)c3)N(Cc3ccco3)C2=O)cc1 (stereo partly shown) [Compound A, reference compound], which EC50 [1, 8] is on record?
**A.** 1500 nM

**Q.** What about the CC50 at 72 h [2] of the same molecule?
**A.** > 5000 nM

**Q.** And the EC50 [3]?
**A.** > 5000 nM

**Q.** And the CC50 at 72 h [4]?
**A.** > 5000 nM

**Q.** What about the Number of colonies ([5]; Wild-type RNA transfected, 3 weeks G418 selection) of the same molecule?
**A.** 3

**Q.** And the “reduction in colony number” value ([5]; wild-type replicon RNA)?
**A.** 95%

**Q.** What about the Number of colonies [6] of the same molecule?
**A.** 10

**Q.** What about the “resistance between wt replicon cells and selected replicon cells” value [7] of the same molecule?
**A.** approximately 60 fold

**Q.** For O=C(Nc1ccc(/C=C/c2ccc(NC(=O)[C@@H]3CCCN3C(=O)Cc3ccccc3)cc2)cc1)[C@@H]1CCCN1C(=O)Cc1ccccc1 [Example 3], which EC50 ([1]; HCV replicon, read-out: Activity (EC50)) is on record?
**A.** 0.1 to 90 nM

**Q.** What about the EC50 [1, 8] of the same molecule?
**A.** < 50 nM

**Q.** What about the EC50 [1, 9] of the same molecule?
**A.** < 50 nM

**Q.** And the CC50 at 72 h [2]?
**A.** > 5000 nM

**Q.** What about the EC50 [3] of the same molecule?
**A.** > 5000 nM

**Q.** And the “window of resistance in Y2065H cells as compared to wild-type cells” value ([3]; Y2065H vs wild-type cells)?
**A.** > 100 fold

**Q.** What about the CC50 at 72 h [4] of the same molecule?
**A.** > 5000 nM

**Q.** What about the “combination response” value (HCV replicon) of the same molecule?
**A.** no significant drug antagonism

**Q.** Which EC50 [1, 9] does the source give for C=CC1CC1(NC(=O)[C@@H]1C[C@@H](Oc2cc(-c3ccccc3)nc3cc(OC)ccc23)CN1C(=O)C(NC(=O)OC(C)(C)C)C(C)(C)C)C(=O)O (stereo partly shown) [protease inhibitor] here?
**A.** 330 nM

**Q.** What about the “CI at HCV inhibition of: 75%” value (HCV replicon; [10]) of the same molecule?
**A.** 0.96 +/− 0.38

**Q.** And the “CI at HCV inhibition of: 90%” value (HCV replicon; [10])?
**A.** 0.91 +/− 0.55

**Q.** What about the “CI at HCV inhibition of: 95%” value (HCV replicon; [10]) of the same molecule?
**A.** 0.88 +/− 0.69

**Q.** And the “Overall Result” value (HCV replicon; [10])?
**A.** Additive

**Q.** And the “CI at HCV inhibition of: 50%” value (HCV replicon; combined with Example 3, molar ratio 1:1 (first number Example 3))?
**A.** 1.05 +/− 0.29

**Q.** What about the “CI at HCV inhibition of: 75%” value (HCV replicon; [11]) of the same molecule?
**A.** 0.78 +/− 0.22

**Q.** And the “CI at HCV inhibition of: 90%” value (HCV replicon; [11])?
**A.** 0.76 +/− 0.33

**Q.** What about the “CI at HCV inhibition of: 95%” value (HCV replicon; [11]) of the same molecule?
**A.** 0.75 +/− 0.43

**Q.** What about the “Overall Result” value (HCV replicon; [11]) of the same molecule?
**A.** Synergistic/Additive

**Q.** What about the “CI at HCV inhibition of: 50%” value (HCV replicon; combined with Example 3, molar ratio 1:2.5 (first number Example 3)) of the same molecule?
**A.** 0.82 +/− 0.17

**Q.** What about the “CI at HCV inhibition of: 75%” value (HCV replicon; [12]) of the same molecule?
**A.** 0.88 +/− 0.27

**Q.** What about the “CI at HCV inhibition of: 90%” value (HCV replicon; [12]) of the same molecule?
**A.** 0.81 +/− 0.40

**Q.** What about the “CI at HCV inhibition of: 95%” value (HCV replicon; [12]) of the same molecule?
**A.** 0.77 +/− 0.49

**Q.** What about the “Overall Result” value (HCV replicon; [12]) of the same molecule?
**A.** Additive

**Q.** What about the “CI at HCV inhibition of: 50%” value (HCV replicon; combined with Example 3, molar ratio 2.5:1 (first number Example 3)) of the same molecule?
**A.** 0.97 +/− 0.22

**Q.** And the “combination response” value (HCV replicon)?
**A.** additive response

**Q.** With alpha-interferon and ribavirin as the molecule, how does the sustained efficacy (HCV) read?
**A.** 40 % of patients
